In PMC2874095 (Journal of medicinal chemistry, 2010):
Substitutions are numbered along the chain they refer to. Read-outs that look alike come from different tables or passages of the source.

How the values were obtained:
[1] = molecular target: Bcl-XL (Homo sapiens, UniProt Q07817); format: binding; conditions: FPA, incomplete titration curves
[2] = molecular target: Bcl-2 (Homo sapiens, UniProt P10415); format: binding; conditions: FPA, incomplete titration curves
[3] = molecular target: T1, N1L (Vaccinia virus, UniProt P17361); format: binding
T1 sequence (P17361 1-117): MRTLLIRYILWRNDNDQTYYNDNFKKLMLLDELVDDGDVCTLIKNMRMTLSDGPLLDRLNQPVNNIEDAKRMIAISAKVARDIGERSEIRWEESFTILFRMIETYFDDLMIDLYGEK

[4] = test system: CV1 and HT1080 cells
[5] = molecular target: T1, N1L; format: binding; remark: listed apart in the source
[6] = molecular target: T2, N1L I6K (Vaccinia virus, UniProt P17361, I6K); format: binding
T2 sequence (P17361 1-117 I6K): T1 sequence (P17361 1-117) with I6K

[7] = test system: VacV-GFP; format: cell-based, vaccinia virus
[8] = compound concentrations above 100 μM

Sequence of Bcl-2 (P10415 whole entry): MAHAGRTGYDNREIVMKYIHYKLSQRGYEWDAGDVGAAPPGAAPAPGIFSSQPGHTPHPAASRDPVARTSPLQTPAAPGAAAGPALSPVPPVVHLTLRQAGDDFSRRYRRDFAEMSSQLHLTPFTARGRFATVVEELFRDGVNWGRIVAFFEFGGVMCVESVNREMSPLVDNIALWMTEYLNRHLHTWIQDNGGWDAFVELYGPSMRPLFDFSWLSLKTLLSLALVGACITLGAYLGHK
Sequence of Bcl-XL (Q07817 whole entry): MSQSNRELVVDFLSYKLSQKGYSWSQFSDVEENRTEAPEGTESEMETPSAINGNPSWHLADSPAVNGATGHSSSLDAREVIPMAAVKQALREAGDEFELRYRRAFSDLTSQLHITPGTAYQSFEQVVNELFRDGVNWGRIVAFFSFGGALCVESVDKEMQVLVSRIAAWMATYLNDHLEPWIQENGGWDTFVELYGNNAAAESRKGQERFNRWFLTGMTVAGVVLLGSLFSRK

Row | SMILES | binding to Bcl-XL (in words) [1] | binding to Bcl-2 (in words) [2] | ΔH of N1L unfolding [3] [kJ/mol] | non-specific cytotoxicity (in words) [4, 8] | further results
1 | Oc1cc(C(c2ccccc2)c2ccccc2)c2ccccc2c1O [Ligand 7] | poor ligand binding | poor ligand binding | 51.5 |  | 
2 | COc1ccc(C(C)c2cc(OC)c(OC)c(OC)c2)cc1 (centres unmarked) [Ligand 2] |  |  |  | no significant non-specific cytotoxicity | 
3 | COc1ccc(CCc2cc(OC)c(O)c(OC)c2)cc1 [Ligand 3] |  |  | 46 |  | 
4 | Oc1ccc(/C=C/c2cc(O)cc(O)c2)cc1 [Ligand 4, trans-Resveratrol] |  |  | 43.1 |  | N1L inhibition (in words) [5]: moderate N1L inhibitor; Tm of N1L I6K [6]: 61.1 °C; ΔH of N1L I6K unfolding [6]: 66.5 kJ/mol
5 | COc1cc(C(c2ccccc2)c2ccccc2)c2ccccc2c1O [Ligand 6] |  |  | 36.4 |  | 
6 | COc1cc(-c2ccc3cc(OC)c(OC)c(OC)c3c2)cc(OC)c1OC [Ligand 11] | poor ligand binding | poor ligand binding | 84.9 | no significant non-specific cytotoxicity | effect on N1L enthalpy of unfolding (in words) [3]: increase of enthalpy of unfolding; effect on N1L melting temperature (in words) [3]: slight decrease of melting temperature
7 | Oc1cc(Cc2ccccc2)c(Cc2ccccc2)cc1O [Ligand 12] |  |  | 46.9 |  | 
8 | Oc1ccc(/C=N/c2ccccc2/N=C/c2ccc(O)c(O)c2)cc1O [Ligand 9] |  |  | 74.5 | no significant non-specific cytotoxicity | 
9 | COc1ccc2ccccc2c1-c1c(O)ccc2ccccc12 [Ligand 8] | cross-reactivity | cross-reactivity |  |  | antiviral activity (in words) [7]: poor antiviral; non-specific cytotoxicity (in words) ([4]; absence of VacV-GFP, up to 150 μM): cytotoxicity in uninfected cells
